From US12653190B2, “Heteroaryl-triazole compounds as pesticides” (Bayer Aktiengesellschaft, priority 2020, dated 2026)

Assays:
Assay type in all cases: in vivo
[1] = system: green peach aphid (Myzus persicae); experiment: Myzus persicae oral test; details: 120 h, 4 ppm, after 5 days
Experimental: • Solvent: 100 parts by weight acetone
To produce a suitable preparation of active compound, 1 part by weight of active compound is mixed with the stated amount of solvent, and the concentrate is diluted with water to the desired concentration.
50 μL compound solution is filled in microtiter plates and 150 μL IPL41 insect medium (33%+15% sugar) is added to obtain a total volume of 200 μL per well. Afterwards the plates are sealed with parafilm through which a mixed population of the green peach aphid (Myzus persicae) can suck on the compound preparation.
After 5 days mortality in % is determined. 100% means all aphids have been killed and 0% means none of the aphids have been killed.

[2] = system: fall armyworm larvae (Spodoptera frugiperda); experiment: Spodoptera frugiperda spray test; details: in Zea mays, 168 h
How it was run: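 Maize leaf sections were sprayed with compound in acetone/dimethylformamide diluted in water with 1000 ppm emulsifier, dried, then infested with larvae. Mortality in % was scored after 7 days, 100% meaning all caterpillars killed.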

[3] = system: adult unfed cat fleas (Ctenocephalides felis); experiment: Ctenocephalides felis oral test; details: 48 h, 100 ppm in cattle blood, after 2 days
How it was run: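 About 20 adult unfed fleas feed through parafilm on cattle blood spiked with compound (DMSO stock diluted in blood); blood held at 37° C., fleas at room temperature. Mortality (%) scored after 2 days, 100% meaning all fleas killed.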

[4] = system: green peach aphid (Myzus persicae); experiment: Myzus persicae spray test; details: foliar, 120 h, after 5 days, Chinese cabbage leaf disks
How it was run: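 Chinese cabbage leaf disks infested with all aphid instars were sprayed with compound in acetone/DMF, diluted in water with 1000 ppm alkylarylpolyglycol ether emulsifier. Mortality (%) scored after 5 days, 100% meaning all aphids killed.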

[5] = system: Rhipicephalus (Boophilus) microplus larvae (strain Parkhurst, resistant against synthetic pyrethroids); experiment: Rhipicephalus (Boophilus) microplus in-vitro contact test, larval cattle tick; details: 5 μg/cm^2 (=500 g/ha), after 48 hours, read-out: efficacy (larvae dead or moribund)
How it was run: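 Acetone solutions coated onto glass tube walls, 900 ppm giving 5 μg/cm^2; 20–50 larvae per tube after solvent evaporation. Incubated 48 h at 27 °C, 85% relative humidity; efficacy from negative geotaxis, 100% meaning all larvae dead or moribund.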

[6] = system: adult engorged female ticks (Rhipicephalus microplus); experiment: Rhipicephalus (Boophilus) microplus injection test; details: 168 h, egg deposition monitored after 7 days, read-out: efficacy (infertile eggs)
How it was run: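 Five adult engorged female ticks each injected with 1 μL of DMSO compound solution into the abdomen, then kept in a climate chamber. Fertile egg deposition assessed after 7 days, with hatching followed to about 42 days; efficacy 100% means all eggs infertile, 0% all fertile.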

[7] = system: adult cat fleas (Ctenocephalides felis); experiment: Ctenocephalides felis in-vitro contact test, adult cat flea; details: 5 μg/cm^2 (=500 g/ha), after 48 hours, read-out: efficacy (fleas dead or moribund)
How it was run: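 Compound in acetone coated onto inner walls of glass tubes (900 ppm solution giving 5 μg/cm^2); after drying, 5-10 adult fleas added and kept at room temperature. At 48 h, fleas placed on 45-50 °C plate ≤5 min; immotile or uncoordinated ones scored dead/moribund; efficacy as % dead/moribund.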

[8] = system: adult mosquitoes Aedes aegypti strain MONHEIM; experiment: Aedes aegypti test (AEDSAE surface treatment & contact assay); details: 24 hours after contact, read-out: efficacy (mortality)
Experimental: Aedes aegypti Test (AEDSAE Surface Treatment & Contact Assay)
(§1) • Solvent: Aceton+2000 ppm rapeseed oil methyl ester (RME)
(§2) In order to produce a sufficient, active ingredient containing solution it is necessary to solve the test compound in the solvent-mix (acetone at 2 mg/ml/RME 2000 ppm). This solution is pipetted onto a glazed tile and after evaporation of the acetone, adult mosquitoes of the species Aedes aegypti strain MONHEIM are placed onto the dried surface. The exposure time is 30 minutes.
Mortality in percent (%) is determined 24 hours after contact of the insects to the treated surface. 100% mortality means that all tested insects are dead, whereas 0% means that no insect died.

[9] = system: adult mosquitoes Culex quinquefasciatus strain P00; experiment: Culex quinquefasciatus test (CULXFA surface treatment & contact assay); details: surface concentration 20 mg/m^2, 30 minutes exposure, 24 hours after contact, read-out: efficacy (mortality)
Experimental: Culex quinquefasciatus Test (CULXFA Surface Treatment & Contact Assay)
as §1
as §2, with “2 000” for “2000”, “Culex Quinquefasciatus” for “Aedes aegypti”, “P00” for “MONHEIM”, “minutes. Mortality in percent (%) is determined 24 hours after contact of the insects to the treated surface. 100% mortality means that all tested insects are dead, whereas 0% means that no insect died.” for “minutes.”

C[C@H](NC(=O)c1cc(Cl)cc(OS(C)(=O)=O)c1)c1ncnn1-c1ccc(C#N)cn1 [Example I-46]
mortality at 4 ppm [1]: 100% | mortality at 100 g/ha [2]: 100% | mortality at 100 ppm [3]: 100% | mortality at 100 g/ha [4]: 100% | pest or weed control at 5 µg/cm2, 5 µg/cm2 [5]: 100% | pest or weed control at 4 µg/tick ([6]; 4 μg/tick injected): 100% | pest or weed control at 20 µg/tick ([6]; 20 μg/tick injected): 100% | pest or weed control at 5 µg/cm2, 5 µg/cm2 [7]: 100% | mortality at 4 mg/m2 ([8]; surface concentration 4 mg/m^2, 30 minutes exposure): 80 to 100% | mortality at 20 mg/m2 ([8]; surface concentration 20 mg/m^2, 30 minutes exposure): 80 to 100% | mortality at 20 mg/m2 [9]: 80 to 100%
